Reference: publication PMC7405012, “Detection of Chaetomium globosum, Ch. cochliodes and Ch. rectangulare during the Diversity Tracking of Mycotoxin-Producing Chaetomium-like Isolates Obtained in Buildings in Finland” (Toxins, 2020)
Values after ≈ are worked out from the molar mass of the structure shown. Where two headings read alike, the source gives them in different places.

Assays:
Type in all cases: cell-based
[1] = system: porcine kidney cells (PK-15); assay: cells
[2] = system: murine neuroblastoma cells (MNA); assay: Inhibition of cell proliferation (ICP) assay, MNA
Method: The plate-grown biomass of the fungal pure cultures (100–300 mg) was extracted with ethanol as described earlier. The toxicity assays, namely BSMI assay after exposure for 30 min (rapid inhibition) and for one day (slow inhibition), SMID assay and ICP assay, were all described previously. The toxicity assays involving the ethanol extracts obtained from pure fungal cultures were performed using porcine cells (sperms and somatic cell lines) as indicators according to methods described before. The calculation of EC50—the half maximal effective concentration for the ethanol-dry substances and pure mycotoxins in the BSMI, SMID and ICP assays—were described previously.
The continuous cell line PK-15 (porcine kidney cells) and a malignant cell line (MNA cell line) provided by EVIRA (Helsinki, Finland) were used in the ICP assay. 5,5′,6,6′-tetrachloro-1,1′,3,3′-tetraethyl-benzimidazolylcarbocyanine iodide (JC-1, 3520-43-2), PI (25535-16-4) and calcein-AM (148504-34-1) were obtained from Invitrogen (Carlsbad, CA, USA). Alamethicin A4665 (T. arundinaceum) (CAS 27061-78-5), a mixture of alamethicin F50 peptaibols (MW 1962, 1976, 1976 and 1990), chaetoglobosin A (CAS 50335-03-0), sterigmatocystin (CAS 10048-13-5) and ochratoxin A (CAS 303-47-9) were obtained from Sigma-Aldrich (St. Louis, MO, USA). Malt extract and tryptic soy agar were obtained from Scharlab (Barcelona, Spain). The other chemicals were of analytical grade and were purchased from local suppliers. The biocides and the wetting agent Genapol-080 were purchased from Sigma-Aldrich Finland. The fungicide Boracol 10Rh was obtained from a local supplier. The selected biocides were Borax (600 µg mL^−1; sodium tetraborate, CAS: 1330-43-4), Boracol 10Rh containing disodium octaborate tetrahydrate (CAS: 12280-03-04) and didecyldimethylammonium chloride [CAS: 7173-51-5]), PHMB (CAS: 27083-27-8), phenoxyethanol (CAS: 122-99-6), chloramine, triclosan (5-Chloro-2-(2,4-dichlorophenoxy)phenol, CAS: 3380-34-5) and the wetting agent Genapol X-080 (CAS: 9043-30-5). Genapol X-080 and the biocides were purchased from Sigma-Aldrich, except for Boracol 10Rh, which was purchased from a local supplier.

[3] = system: Indoor Trichoderma atroviride 14/AM; assay: Resistance to biocides: conidial germination; conditions: strain 14/AM
Method: (§1) The toxicity of biocides and chemicals towards the indoor Chaetomium-like isolates and the reference indoor strains of the genera Aspergillus, Paecilomyces, Penicillium and Trichoderma was assessed in parallel with the six parameters presented in the Supplementary Materials: (1) germ tube assay (Figure S3); (2) estimation of turbidity (Figure S4); (3) visual emission of fluorescence (excitation at 360 nm); (4) visual resporulation of conidia; (5) inhibition of glucose consumption; and (6) resazurin reduction. All assays were performed in malt extract broth (12 g L^−1 malt extract, 7.2 µmol mL^−1 glucose, pH 5.5; Scharlab, Barcelona, Spain) in 96-well microtiter plates as described for the ICP assay.
(§2) The assays measuring inhibition of germination of conidia were done with spore suspensions of 1–2 × 10^6 fungal spores mL−^1. The tests were performed in malt extract broth (Oxoid, Hampshire United Kingdom) 12 g in 1 L, pH 5.5, glucose 7.1 mmol L^−1, and performed on microtiter plates as described by Bencsik et al. for the ICP assay. The germ tube germination is visualized in Figure S3, and the tests estimating turbidity and emission of fluorescence provoked by the germinated and metabolically active conidia and C. globosum ascospores are visualized in Figures S4 and S5. Examples of the tests estimating fluorescence emission, turbidity and re-sporulation of conidia and ascospores are compared in Figure S5. The difference of the endpoints measured with the different assays was between […]. The resazurin reduction assays (Figure S6) were performed as described for the ICP assay, except that the microtiter plates were visually inspected for the change of the blue/violet color of resazurin (indicating inhibition of germination of the exposed conidia) to the […] (indicating metabolic activity and germination of the exposed conidia).
(§3) The formation of germ tubes was inspected by a phase-contrast microscope (Olympus CKX41, Tokyo, Japan; magnification 400×) and an image recording software (Cellsense® standard version 11.0.06, Olympus Soft Imaging Solutions GmbH, Münster, Germany, 2012) after 1 and 2 days of incubation at 28 °C. The EC50 corresponded to the inhibition of 50% (estimated as the concentration between EC0 and EC100) of the conidia compared to the ethanol control (the growth medium containing 1% of ethanol). The tests were run in triplicate and calibrated with triclosan (CAS: 3380-34-5; Sigma Chemical Co., St. Louis, MO, USA) giving a mean SD of ±<20%.

[4] = system: Indoor Trichoderma atroviride Tri7A/SKK; assay: Resistance to biocides: conidial germination; conditions: strain Tri7A/SKK
Method: as §1, §2, §3

[5] = system: Aspergillus westerdijkiae PP3; assay: Resistance to biocides: conidial germination; conditions: strain PP3, Aspergillus westerdijkiae
Method: as §1, §2, §3

[6] = system: Aspergillus versicolor SL/3; assay: Resistance to biocides: conidial germination; conditions: strain SL/3, Aspergillus versicolor
Method: as §1, §2, §3

[7] = system: Aspergillus section Flavi 7D; assay: Resistance to biocides: conidial germination; conditions: strain 7D, indoor Aspergillus section Flavi
Method: as §1, §2, §3

[8] = system: Aspergillus section Nigri Asp21; assay: Resistance to biocides: conidial germination; conditions: strain Asp21, indoor Aspergillus section Nigri
Method: as §1, §2, §3

[9] = system: Penicillium sp. HJ2; assay: Resistance to biocides: conidial germination; conditions: strain HJ2, indoor Penicillium sp.
Method: as §1, §2, §3

[10] = system: Paecilomyces variotii Pac2/kop; assay: Resistance to biocides: conidial germination; conditions: strain Pac2/kop, indoor Paecilomyces variotii
Method: as §1, §2, §3

[11] = system: Indoor Trichoderma atroviride Ke14; assay: Resistance to biocides: conidial germination; conditions: strain Ke14, indoor Trichoderma atroviride
Method: as §1, §2, §3

[12] = system: Penicillium sp. 26/skk; assay: Resistance to biocides: conidial germination; conditions: strain 26/skk, indoor Penicillium sp.
Method: as §1, §2, §3

[13] = system: Paecilomyces variotii Pac1/kop; assay: Resistance to biocides: conidial germination; conditions: strain Pac1/kop, indoor Paecilomyces variotii
Method: as §1, §2, §3

[14] = system: Paecilomyces sp. Pec1/skk; assay: Resistance to biocides: conidial germination; conditions: strain Pec1/skk, indoor Paecilomyces sp.
Method: as §1, §2, §3

[15] = Sus scrofa, mammalian cell line PK-15 (ICT assay), read-out: EC50
[16] = Mus musculus, Neuroblastoma cell, mammalian cell line MNA (ICT assay), read-out: EC50
[17] = mammalian cell line PK-15 (ICT assay)
[18] = mammalian cell line MNA (ICT assay)

O=BOB(O)OB(O)OB=O [Borax, sodium tetraborate]
EC50 [1, 15]: 600 µg/mL | EC50 [2, 16]: 150 µg/mL | EC50 ([3]; read-out: EC50): 1200 µg/mL | EC50 ([4]; read-out: EC50): 1200 µg/mL | EC50 ([5]; read-out: EC50): 5000 µg/mL | EC50 ([6]; read-out: EC50): 5000 µg/mL | EC50 ([7]; FLAVI7D, read-out: EC50): 2500 µg/mL | EC50 ([8]; read-out: EC50): ≥ 5000 µg/mL | EC50 ([9]; read-out: EC50): 2500 µg/mL | EC50 ([10]; read-out: EC50): ≥ 5000 µg/mL | EC50 ([11]; read-out: EC50): 1200 µg/mL | EC50 ([12]; SP.26/SKK, read-out: EC50): > 5000 µg/mL | EC50 ([13]; read-out: EC50): ≥ 5000 µg/mL | EC50 ([14]; read-out: EC50): ≥ 5000 µg/mL

C/C1=C\[C@@H](C)C/C=C/[C@H]2[C@@H]3O[C@]3(C)[C@@H](C)[C@H]3[C@H](Cc4c[nH]c5ccccc45)NC(=O)[C@]32C(=O)/C=C/C(=O)[C@@H]1O [Chaetoglobosin A, chaetoglobosin A]
EC50 ([1]; Sus scrofa, 48 h, PK-15, 2 days, 37 °C, read-out: EC50 ICP PK-15 2 days): 3 µg/mL (≈ 5.67 µM) | EC50 ([2]; Mus musculus, Neuroblastoma cell, 48 h, MNA, 2 days, 37 °C, read-out: EC50 ICP MNA 2 days): 1 µg/mL (≈ 1.89 µM)

NCl [Chloramine, chloramine]
EC50 [1, 17]: 150 µg/mL (≈ 2910 µM) | EC50 [2, 18]: 80 µg/mL (≈ 1550 µM) | EC50 [4]: 2500 µg/mL (≈ 48600 µM) | EC50 [5]: 600 µg/mL (≈ 11700 µM) | EC50 [6]: 600 µg/mL (≈ 11700 µM) | EC50 [7]: 600 µg/mL (≈ 11700 µM) | EC50 [12]: 600 µg/mL (≈ 11700 µM)

OCCOc1ccccc1 [Phenoxy-ethanol, phenoxyethanol]
EC50 [1, 15]: 1500 µg/mL (≈ 10900 µM) | EC50 [2, 16]: 400 µg/mL (≈ 2900 µM) | EC50 ([3]; read-out: EC50): 3000 µg/mL (≈ 21700 µM) | EC50 ([4]; read-out: EC50): 1500 µg/mL (≈ 10900 µM) | EC50 ([5]; read-out: EC50): 1500 µg/mL (≈ 10900 µM) | EC50 ([6]; read-out: EC50): 800 µg/mL (≈ 5790 µM) | EC50 ([7]; FLAVI7D, read-out: EC50): 1500 µg/mL (≈ 10900 µM) | EC50 ([8]; read-out: EC50): 3000 µg/mL (≈ 21700 µM) | EC50 ([9]; read-out: EC50): 800 µg/mL (≈ 5790 µM) | EC50 ([10]; read-out: EC50): 3000 µg/mL (≈ 21700 µM) | EC50 ([11]; read-out: EC50): 1500 µg/mL (≈ 10900 µM) | EC50 ([12]; SP.26/SKK, read-out: EC50): 3000 µg/mL (≈ 21700 µM) | EC50 ([13]; read-out: EC50): 3000 µg/mL (≈ 21700 µM) | EC50 ([14]; read-out: EC50): 3000 µg/mL (≈ 21700 µM)

Oc1cc(Cl)ccc1Oc1ccc(Cl)cc1Cl [Triclosan, 5-Chloro-2-(2,4-dichlorophenoxy)phenol]
EC50 [1, 15]: 8 to 15 µg/mL (≈ 27.6 to 51.8 µM) | EC50 [2, 16]: 4 to 8 µg/mL (≈ 13.8 to 27.6 µM) | EC50 ([3]; read-out: EC50): 30 µg/mL (≈ 104 µM) | EC50 ([4]; read-out: EC50): 16 µg/mL (≈ 55.3 µM) | EC50 ([5]; read-out: EC50): 16 µg/mL (≈ 55.3 µM) | EC50 ([6]; read-out: EC50): 16 µg/mL (≈ 55.3 µM) | EC50 ([7]; FLAVI7D, read-out: EC50): 8 µg/mL (≈ 27.6 µM) | EC50 ([8]; read-out: EC50): 30 µg/mL (≈ 104 µM) | EC50 ([9]; read-out: EC50): 8 µg/mL (≈ 27.6 µM) | EC50 ([10]; read-out: EC50): 4 µg/mL (≈ 13.8 µM) | EC50 ([11]; read-out: EC50): 16 µg/mL (≈ 55.3 µM) | EC50 ([12]; SP.26/SKK, read-out: EC50): 30 µg/mL (≈ 104 µM) | EC50 ([13]; read-out: EC50): 4 µg/mL (≈ 13.8 µM) | EC50 ([14]; read-out: EC50): 4 µg/mL (≈ 13.8 µM)

polyhexamethylene biguanide hydrochloride [PHMB]
EC50 [1, 17]: 15 µg/mL | EC50 [2, 18]: 4 µg/mL | EC50 [3]: 4 µg/mL | EC50 [4]: 8 µg/mL | EC50 [5]: 60 µg/mL | EC50 [6]: 60 µg/mL | EC50 [7]: 120 µg/mL | EC50 [8]: 30 µg/mL | EC50 [9]: 1 µg/mL | EC50 [10]: 30 µg/mL | EC50 [11]: 4 µg/mL | EC50 [12]: 30 µg/mL | EC50 [13]: 30 µg/mL | EC50 [14]: 16 µg/mL
